Reference: ChEMBL document CHEMBL4130585, “Pimentelamines A-C, Indole Alkaloids Isolated from the Leaves of the Australian Tree Flindersia pimenteliana” (J Nat Prod, 2017)
Activity calls are given as the source filed them. The calls are words filed in the database; no cut-off is given here.

Experiments:
Plasmodium falciparum [1] = assay: Antimalarial activity against chloroquine-sensitive Plasmodium falciparum 3D7 at 40 uM after 72 hrs by DAPI staining based confocal microplate imaging method; type: functional, organism-based
Plasmodium falciparum [2] = assay: Growth inhibition of chloroquine-resistant Plasmodium falciparum Dd2 at 40 uM after 72 hrs by DAPI staining based confocal microplate imaging method relative to control; type: functional
HEK293 [3] = assay: Cytotoxicity against HEK293 cells at 40 uM after 72 hrs by resazurin dye based assay; type: cell-based; details: human, hek293, 72 h
[4] = Selectivity index, ratio of IC50 for HEK293 cells to IC50 for chloroquine-sensitive Plasmodium falciparum 3D7; type: toxicity; details: human, read-out: Ratio IC50
Plasmodium falciparum [5] = assay: Antimalarial activity against chloroquine-resistant Plasmodium falciparum Dd2 after 72 hrs by DAPI staining based confocal microplate imaging method; type: functional, organism-based; details: Dd2, 72 h
Plasmodium falciparum [6] = assay: Antimalarial activity against chloroquine-sensitive Plasmodium falciparum 3D7 after 72 hrs by DAPI staining based confocal microplate imaging method; type: functional, organism-based; details: 3D7, 72 h
HEK293 [7] = assay: Cytotoxicity against HEK293 cells after 72 hrs by resazurin dye based assay; type: cell-based; details: Homo sapiens, HEK293, 72 h
Plasmodium falciparum [8] = assay: Antimalarial activity against chloroquine-sensitive Plasmodium falciparum 3D7 at 5 uM after 72 hrs by DAPI staining based confocal microplate imaging method relative to control; type: functional

Compound	Activity (Plasmodium falciparum [1])	growth inhibition (GI) (Plasmodium falciparum [2])	Activity (HEK293 [3])	selectivity ratio [4]	IC50 (Plasmodium falciparum [5])	IC50 (Plasmodium falciparum [6])	IC50 (HEK293 [7])	Activity (Plasmodium falciparum [8])	inhibition of growth at 40 µM (Plasmodium falciparum [2]; Dd2, 72 h, read-out: GI)
CN(C)CCc1c(C[C@@H]2O[C@]34OC[C@H](O)[C@H]3OC(=O)[C@]4(O)C2(C)C)[nH]c2ccccc12.O=C(O)C(F)(F)F	inactive	inactive	Non-Toxic	–	–	–	–	–	–
C[C@@H]1O[C@@H](Oc2c(-c3ccc(O)c(O)c3)oc3cc(O)cc(O)c3c2=O)[C@H](O)[C@H](O)[C@H]1O [QUERCITRIN]	inactive	inactive	Non-Toxic	–	–	–	–	–	–
CNCCc1c(C[C@@H]2O[C@]34OC[C@H](O)[C@H]3OC(=O)[C@]4(O)C2(C)C)[nH]c2ccccc12.O=C(O)C(F)(F)F	inactive	inactive	Non-Toxic	–	–	–	–	–	–
CC1=C[C@@H]2c3c(CCN(C)C)c4ccccc4n3[C@@H](c3[nH]c4ccccc4c3CCN(C)C)[C@@H]2C(C)(C)C1	–	–	–	8	190 nM	670 nM	5.4 µM	–	–
CNCCc1c([C@@H]2[C@@H]3[C@H](C=C(C)CC3(C)C)[C@]34Nc5ccccc5[C@]23CCN4C)[nH]c2ccccc12	–	–	–	16	220 nM	310 nM	5 µM	–	–
COc1ccc2nc3cc(Cl)ccc3c(Nc3cc(CN4CCCC4)c(O)c(CN4CCCC4)c3)c2n1 [PYRONARIDINE]	–	–	–	239	140 nM	–	2.9 µM	–	–
C[C@H]1[C@@H](O)O[C@@H]2O[C@@]3(C)CC[C@H]4[C@H](C)CC[C@@H]1[C@@]24OO3 [ARTENIMOL]	–	–	–	38100	0.4 nM	0.3 nM	9.9 µM	–	–
CCN(CC)CCCC(C)Nc1ccnc2cc(Cl)ccc12 (stereo not drawn) [CHLOROQUINE]	–	–	–	–	–	–	0.49 µM	–	–
CC1=C[C@H]2[C@@H]([C@@H](c3[nH]c4ccccc4c3CCN(C)C)[C@]34CCN(C)[C@]23Nc2ccccc24)C(C)(C)C1	–	–	–	14	340 nM	510 nM	7.1 µM	–	–
CC1(C)C=Cc2c(cc3oc(-c4ccc(O)cc4)cc(=O)c3c2O)O1	–	–	Non-Toxic	> 6	2300 nM	3400 nM	–	–	–
COc1ccc(C[C@H](N)C(=O)N[C@H]2[C@@H](O)[C@H](n3cnc4c(N(C)C)ncnc43)O[C@@H]2CO)cc1 [PUROMYCIN]	–	–	–	8	32 nM	–	0.45 to 0.69 µM	100%	–
CCc1nc(N)nc(N)c1-c1ccc(Cl)cc1 [PYRIMETHAMINE]	–	–	–	120	–	6 nM	0.69 µM	–	59%
C[C@H]1[C@H](OC(=O)CCC(=O)O)O[C@@H]2O[C@@]3(C)CC[C@H]4[C@H](C)CC[C@@H]1[C@@]24OO3 [ARTESUNATE]	–	–	–	7990	–	1 nM	7 µM	–	–
CC1(C)[C@H](Cc2[nH]c3ccccc3c2CC[N+](C)(C)O)O[C@]23OC[C@H](O)[C@H]2OC(=O)[C@]13O.O=C([O-])C(F)(F)F	–	–	Non-Toxic	> 6	2700 nM	3600 nM	–	–	–
